Test results as given in ChEMBL document CHEMBL4665782, “Furostanol Saponins from Trillium tschonoskii Promote the Expansion of Human Cord Blood Hematopoietic Stem and Progenitor Cells” (2020).
Active and inactive are the calls of the source. The rule behind the calls is not given here.

Legend:
[1] = Expansion of human CD34+cells measured after 4 days by FACS analysis; format: functional, CD34-positive (myeloid/lymphoid) cell
[2] = system: CD34-positive (myeloid/lymphoid) cell; assay: Expansion-promoting activity against human CD34+ cells assessed as increase in Lin-CD34+CD38-CD45RA-CD49f-CD90- multipotent progenitor cells measured after 4 days by FACS analysis; format: functional, cell-based
[3] = Expansion-promoting activity against human CD34+ cells assessed as increase in Lin-CD34+CD38-CD45RA-CD49f+CD90- multipotent progenitor cells measured after 4 days by FACS analysis relative to control; format: functional, CD34-positive (myeloid/lymphoid) cell
[4] = system: CD34-positive (myeloid/lymphoid) cell; assay: Expansion-promoting activity against human CD34+cells assessed as increase in CD34+/CD38- cells measured after 4 days by FACS analysis; format: functional, cell-based

SMILES | fold change (FC) [1] | Activity [2] | fold change (FC) [3] | Activity [4]
C[C@H](CC[C@@]1(O)OC2C[C@H]3[C@@H]4C[C@@H](O)[C@@]5(O)C[C@@H](O[C@@H]6O[C@H](CO)[C@@H](O[C@@H]7O[C@@H](C)[C@H](O[C@@H]8O[C@@H](C)[C@H](O)[C@@H](O)[C@H]8O)[C@@H](O)[C@H]7O)[C@H](O)[C@H]6O[C@@H]6O[C@@H](C)[C@H](O)[C@@H](O)[C@H]6O)CC[C@]5(C)[C@H]4CC[C@]3(C)[C@@]2(O)[C@@H]1C)CO[C@@H]1O[C@H](CO)[C@@H](O)[C@H](O)[C@H]1O (some centres undefined) | 8.4 | Active | 1.8 | 
CC1=C2[C@](O)(C[C@H]3[C@@H]4C[C@@H](O)[C@@]5(O)C[C@@H](O[C@@H]6O[C@H](CO)[C@@H](O[C@@H]7O[C@@H](C)[C@H](O)[C@@H](O)[C@H]7O)[C@H](O)[C@H]6O[C@@H]6O[C@@H](C)[C@H](O)[C@@H](O)[C@H]6O)CC[C@]5(C)[C@H]4CC[C@]23C)C(C[C@@H](C)CO[C@@H]2O[C@H](CO)[C@@H](O)[C@H](O)[C@H]2O)C1=O (some centres undefined) |  | Active |  | Active
C[C@H](CC[C@@]1(O)OC2C[C@H]3[C@@H]4CC=C5C[C@@H](O[C@@H]6O[C@H](CO)[C@@H](O[C@@H]7O[C@H](CO)[C@H](O)[C@@H](O)[C@H]7O)[C@H](O)[C@H]6O[C@@H]6O[C@@H](C)[C@H](O)[C@@H](O)[C@H]6O)CC[C@]5(C)[C@H]4CC[C@]3(C)[C@@]2(O)[C@@H]1C)CO[C@@H]1O[C@H](CO)[C@@H](O)[C@H](O)[C@H]1O (some centres undefined) | 8.8 | Active | 1.9 | Active
C/C(C(=O)CC[C@@H](C)CO[C@@H]1O[C@H](CO)[C@@H](O)[C@H](O)[C@H]1O)=C1/C(=O)C[C@H]2[C@@H]3CC=C4C[C@@H](O[C@@H]5O[C@H](CO)[C@@H](O)[C@H](O)[C@H]5O[C@@H]5O[C@@H](C)[C@H](O)[C@@H](O)[C@H]5O)CC[C@]4(C)[C@H]3CC[C@]12C | 5.7 | Active | 1 | Active
C[C@H](CCC(=O)[C@@H](C)C1C(=O)C[C@H]2[C@@H]3CC=C4C[C@@H](O[C@@H]5O[C@H](CO)[C@@H](O[C@@H]6O[C@@H](C)[C@H](O)[C@@H](O)[C@H]6O)[C@H](O)[C@H]5O[C@@H]5O[C@@H](C)[C@H](O)[C@@H](O)[C@H]5O)CC[C@]4(C)[C@H]3CC[C@]12C)CO[C@@H]1O[C@H](CO)[C@@H](O)[C@H](O)[C@H]1O (some centres undefined) |  | Active |  | Active
C/C(C(=O)CC[C@@H](C)CO[C@@H]1O[C@H](CO)[C@@H](O)[C@H](O)[C@H]1O)=C1/C(=O)C[C@H]2[C@@H]3CC=C4C[C@@H](O[C@@H]5O[C@H](CO)[C@@H](O[C@@H]6O[C@@H](C)[C@H](O)[C@@H](O)[C@H]6O)[C@H](O)[C@H]5O[C@@H]5O[C@@H](C)[C@H](O)[C@@H](O)[C@H]5O)CC[C@]4(C)[C@H]3CC[C@]12C |  | Active |  | 
C/C(C(=O)CC[C@@H](C)CO[C@@H]1O[C@H](CO)[C@@H](O)[C@H](O)[C@H]1O)=C1/C(=O)C[C@H]2[C@@H]3C(=O)C=C4C[C@@H](O[C@@H]5O[C@H](CO)[C@@H](O[C@@H]6O[C@@H](C)[C@H](O)[C@@H](O)[C@H]6O)[C@H](O)[C@H]5O[C@@H]5O[C@@H](C)[C@H](O)[C@@H](O)[C@H]5O)CC[C@]4(C)[C@H]3CC[C@]12C |  |  |  | Active
C[C@H](CC[C@@]1(O)OC2C[C@H]3[C@@H]4C[C@@H](O)[C@@]5(O)C[C@@H](O[C@@H]6O[C@H](CO)[C@@H](O)[C@H](O)[C@H]6O[C@@H]6O[C@@H](C)[C@H](O)[C@@H](O)[C@H]6O)CC[C@]5(C)[C@H]4CC[C@]3(C)[C@@]2(O)[C@@H]1C)CO[C@@H]1O[C@H](CO)[C@@H](O)[C@H](O)[C@H]1O (some centres undefined) |  | Active |  | 
Cc1c(CC[C@@H](C)CO[C@@H]2O[C@H](CO)[C@@H](O)[C@H](O)[C@H]2O)oc2c1[C@@]1(C)CC[C@H]3[C@@H](CC=C4C[C@@H](O[C@@H]5O[C@H](CO)[C@@H](O)[C@H](O)[C@H]5O[C@@H]5O[C@@H](C)[C@H](O)[C@@H](O)[C@H]5O)CC[C@@]43C)[C@@H]1C2 | 5.5 | Active | 0.9 | Active
Cc1c(CC[C@@H](C)CO[C@@H]2O[C@H](CO)[C@@H](O)[C@H](O)[C@H]2O)oc2c1[C@@]1(C)CC[C@H]3[C@@H](C[C@@H](O)[C@@]4(O)C[C@@H](O[C@@H]5O[C@H](CO)[C@@H](O[C@@H]6O[C@@H](C)[C@H](O[C@@H]7O[C@@H](C)[C@H](O)[C@@H](O)[C@H]7O)[C@@H](O)[C@H]6O)[C@H](O)[C@H]5O[C@@H]5O[C@@H](C)[C@H](O)[C@@H](O)[C@H]5O)CC[C@]34C)[C@@H]1C2 | 7.7 | Active | 1.6 | Active
C[C@H](CCC(=O)[C@@H](C)C1C(=O)C[C@H]2[C@@H]3CC=C4C[C@@H](O[C@@H]5O[C@H](CO)[C@@H](O)[C@H](O)[C@H]5O[C@@H]5O[C@@H](C)[C@H](O)[C@@H](O)[C@H]5O)CC[C@]4(C)[C@H]3CC[C@]12C)CO[C@@H]1O[C@H](CO)[C@@H](O)[C@H](O)[C@H]1O (some centres undefined) | 8.4 | Active | 1.8 | Active
CC1=C2[C@](O)(C[C@H]3[C@@H]4C[C@@H](O)[C@@]5(O)C[C@@H](O[C@@H]6O[C@H](CO)[C@@H](O[C@@H]7O[C@@H](C)[C@H](O[C@@H]8O[C@@H](C)[C@H](O)[C@@H](O)[C@H]8O)[C@@H](O)[C@H]7O)[C@H](O)[C@H]6O[C@@H]6O[C@@H](C)[C@H](O)[C@@H](O)[C@H]6O)CC[C@]5(C)[C@H]4CC[C@]23C)C(C[C@@H](C)CO[C@@H]2O[C@H](CO)[C@@H](O)[C@H](O)[C@H]2O)C1=O (some centres undefined) | 6.7 | Active | 1.3 | Active
